Test results reported in patent US11046680B1, “Heteroaryl-substituted triazoles as APJ receptor agonists” (priority 2016, dated 2021).

Target: human APJ receptor (Homo sapiens (Human), UniProt P35414)
Assay: biochemical
Type: biochemical
Settings: [35S]GTPγS binding, CHO membranes expressing human APJ receptor; read-out: Activity hAPJ SPA EC50 IP
Summary of the method: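 Membranes of a stable CHO line carrying human APJ (pFLAG-CMV-3) were used in a GTPγS binding format; buffer GDP, MgCl2 and NaCl were optimized, and plates were read after 90 min at RT.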

Sequence of human APJ receptor (P35414 whole entry): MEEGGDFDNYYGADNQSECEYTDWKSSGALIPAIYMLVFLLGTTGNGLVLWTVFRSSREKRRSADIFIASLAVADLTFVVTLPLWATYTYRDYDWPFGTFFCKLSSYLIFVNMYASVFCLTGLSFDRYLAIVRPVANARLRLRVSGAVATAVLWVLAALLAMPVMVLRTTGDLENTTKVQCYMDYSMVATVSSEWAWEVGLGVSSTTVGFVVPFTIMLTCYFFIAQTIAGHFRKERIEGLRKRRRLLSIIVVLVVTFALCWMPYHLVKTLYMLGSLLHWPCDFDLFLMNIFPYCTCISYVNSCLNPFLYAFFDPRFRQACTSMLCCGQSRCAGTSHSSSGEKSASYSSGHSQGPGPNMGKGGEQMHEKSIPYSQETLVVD

Row | Compound | EC50 [nM]
1 | COc1nccc(-c2nnc(NS(=O)(=O)[C@@H](C)[C@H](C)c3ncc(F)cn3)n2-c2c(OC)cccc2OC)n1 [Example 197.0, (2S,3R)-N-(4-(2,6-dimethoxyphenyl)-5-(2-methoxy-4-pyrimidinyl)-4H-1,2,4-triazol-3-yl)-3-(5-fluoro-2-pyrimidinyl)-2-butanesulfonamide] | 2.4
2 | COc1cccc(OC)c1-n1c(NS(=O)(=O)CCc2ccc(Cl)cc2)nnc1-c1ccsc1 [Example 141.0, 2-(4-chlorophenyl)-N-(4-(2,6-dimethoxyphenyl)-5-(thiophen-3-yl)-4H-1,2,4-triazol-3-yl)ethanesulfonamide] | 9.4
3 | COc1cccc(OC)c1-n1c(NS(=O)(=O)[C@@H](C)[C@H](OC)c2ncc(C)cn2)nnc1-c1noc(C)c1C [Example 516.0] | 18
4 | COc1cccc(OC)c1-n1c(NS(=O)(=O)[C@H](C)Cc2ncc(F)cn2)nnc1-c1conc1C (single isomer, unassigned) [Example 65.0, (R)-N-(4-(2,6-dimethoxyphenyl)-5-(3-methylisoxazol-4-yl)-4H-1,2,4-triazol-3-yl)-1-(5-fluoropyrimidin-2-yl)propane-2-sulfonamide or (S)-N-(4-(2,6-dimethoxyphenyl)-5-(3-methylisoxazol-4-yl)-4H-1,2,4-triazol-3-yl)-1-(5-fluoropyrimidin-2-yl)propane-2-sulfonamide] | 76
5 | COCC1(n2c(NS(=O)(=O)[C@@H](C)[C@H](OC)c3ncc(Cl)cn3)nnc2-c2nn(C)c3c2CCCC3)CCC1 [Example 518.0] | 92
6 | COc1cccc(OC)c1-n1c(NS(=O)(=O)[C@@H](C)[C@H](C)c2ncc(F)cn2)nnc1-c1nc(C)cs1 (single isomer, unassigned) [Example 120.0] | 0.17
7 | COc1cccc(OC)c1-n1c(NS(=O)(=O)C[C@H](O)c2ccc(Cl)cc2)nnc1-c1ccn(C)n1 (single isomer, unassigned) [Example 374.0, (R)-2-(4-Chlorophenyl)-N-(4-(2,6-dimethoxyphenyl)-5-(1-methyl-1H-pyrazol-3-yl)-4H-1,2,4-triazol-3-yl)-2-hydroxyethanesulfonamide or (R)-2-(4-chlorophenyl)-N-(4-(2,6-dimethoxyphenyl)-5-(1-methyl-1H-pyrazol-3-yl)-4H-1,2,4-triazol-3-yl)-2-hydroxyethanesulfonamide] | 7
8 | COc1cccc(OC)c1-n1c(NS(=O)(=O)[C@@H](C)[C@H](OC)c2ncc(Cl)cn2)nnc1-c1noc(C)c1C [Example 515.0, (1R,2S)-1-(5-chloropyrimidin-2-yl)-N-(4-(2,6-dimethoxyphenyl)-5-(4,5-dimethylisoxazol-3-yl)-4H-1,2,4-triazol-3-yl)-1-methoxypropane-2-sulfonamide] | 0.93
9 | COc1cccc(OC)c1-n1c(NS(=O)(=O)[C@H](C)[C@@H](C)c2cnc(C)cn2)nnc1-c1ccn(C)n1 [Example 281.0, (2R,3S)-N-(4-(2,6-dimethoxyphenyl)-5-(1-methyl-1H-pyrazol-3-yl)-4H-1,2,4-triazol-3-yl)-3-(5-methyl-2-pyrazinyl)-2-butanesulfonamide] | 84
10 | COCC1(n2c(NS(=O)(=O)[C@@H](C)[C@H](OC)c3ncc(Cl)cn3)nnc2-c2nn(C)c3c2CCCC3)CC1 [Example 513.0, (1R,2S)-1-(5-chloropyrimidin-2-yl)-1-methoxy-N-(4-(1-(methoxymethyl)cyclopropyl)-5-(1-methyl-4,5,6,7-tetrahydro-1H-indazol-3-yl)-4H-1,2,4-triazol-3-yl)propane-2-sulfonamide] | 3.1
11 | CCc1nc(-c2nnc(NS(=O)(=O)CCc3ncc(F)cn3)n2-c2c(OC)cccc2OC)cs1 [Example 99.0, N-(4-(2,6-dimethoxyphenyl)-5-(2-ethylthiazol-4-yl)-4H-1,2,4-triazol-3-yl)-2-(5-fluoropyrimidin-2-yl)ethanesulfonamide] | 13
12 | COc1cccc(OC)c1-n1c(NS(=O)(=O)[C@H](C)[C@H](O)c2ncc(C)cn2)nnc1-c1nc(C)cs1 (single isomer, unassigned) [Example 316.0, (1R,2R)-N-(4-(2,6-dimethoxyphenyl)-5-(4-methylthiazol-2-yl)-4H-1,2,4-triazol-3-yl)-1-hydroxy-1-(5-methylpyrimidin-2-yl)propane-2-sulfonamide or (1S,2S)-N-(4-(2,6-dimethoxyphenyl)-5-(4-methylthiazol-2-yl)-4H-1,2,4-triazol-3-yl)-1-hydroxy-1-(5-methylpyrimidin-2-yl)propane-2-sulfonamide] | 81
13 | COCC(COC)n1c(NS(=O)(=O)[C@@H](C)[C@H](C)c2ncc(Cl)cn2)nnc1-c1nn(C)c2ccc(C)cc12 [Example 448.0, (2S,3R)-3-(5-chloropyrimidin-2-yl)-N-(4-(1,3-dimethoxypropan-2-yl)-5-(1,5-dimethyl-1H-indazol-3-yl)-4H-1,2,4-triazol-3-yl)butane-2-sulfonamide] | 10
14 | Cn1ccc(-c2nnc(NS(=O)(=O)[C@@H]3C[C@@H](O)CN(c4ncc(F)cn4)C3)n2-c2c(F)cccc2F)n1 (single isomer, unassigned) [Example 300.0, (3R,5R)-N-(4-(2,6-difluorophenyl)-5-(1-methyl-1H-pyrazol-3-yl)-4H-1,2,4-triazol-3-yl)-1-(5-fluoro-2-pyrimidinyl)-5-hydroxy-3-piperidinesulfonamide or (3S,5R)-N-(4-(2,6-difluorophenyl)-5-(1-methyl-1H-pyrazol-3-yl)-4H-1,2,4-triazol-3-yl)-1-(5-fluoro-2-pyrimidinyl)-5-hydroxy-3-piperidinesulfonamide] | 55
15 | COc1ccc2[nH]c(-c3nnc(NS(=O)(=O)[C@@H](C)[C@H](OC)c4ncc(C)cn4)n3-c3c(OC)cccc3OC)cc2c1 [Example 336.0, (1R,2S)-N-(4-(2,6-dimethoxyphenyl)-5-(5-methoxy-1H-indo1-2-yl)-4H-1,2,4-triazol-3-yl)-1-methoxy-1-(5-methyl-2-pyrimidinyl)-2-propanesulfonamide] | 310
16 | COc1cccc(OC)c1-n1c(NS(=O)(=O)[C@@H](C)[C@H](OC)c2cnc(C)cn2)nnc1-c1ccn(C(F)F)n1 [Example 223.0, (1R,2S)-N-(5-(1-(difluoromethyl)-1H-pyrazol-3-yl)-4-(2,6-dimethoxyphenyl)-4H-1,2,4-triazol-3-yl)-1-methoxy-1-(5-methyl-2-pyrazinyl)-2-propanesulfonamide] | 2.9
17 | COc1cccc(OC)c1-n1c(NS(=O)(=O)[C@@H](C)[C@H](OC)c2ncc(Cl)cn2)nnc1-c1n[nH]c2ccc(Cl)cc12 [Example 422.0, (1R,2S)-N-(5-(5-chloro-1H-indazol-3-yl)-4-(2,6-dimethoxyphenyl)-4H-1,2,4-triazol-3-yl)-1-(5-chloropyrimidin-2-yl)-1-methoxypropane-2-sulfonamide] | 6.2
18 | COc1cccc(OC)c1-n1c(NS(=O)(=O)[C@H]2CCCNC2)nnc1-c1ccn(C)n1 (mixture of isomers) [Example 263.0, (3R)-N-(4-(2,6-dimethoxyphenyl)-5-(1-methyl-1H-pyrazol-3-yl)-4H-1,2,4-triazol-3-yl)-3-piperidinesulfonamide and (3S)-N-(4-(2,6-dimethoxyphenyl)-5-(1-methyl-1H-pyrazol-3-yl)-4H-1,2,4-triazol-3-yl)-3-piperidinesulfonamide] | 180
19 | COc1cccc(OC)c1-n1c(NS(=O)(=O)[C@H](C)Cc2ncc(F)cn2)nnc1-c1ncccn1 (single isomer, unassigned) [Example 59.0, (R)-N-(4-(2,6-dimethoxyphenyl)-5-(pyrimidin-2-yl)-4H-1,2,4-triazol-3-yl)-1-(5-fluoropyrimidin-2-yl)propane-2-sulfonamide or (S)-N-(4-(2,6-dimethoxyphenyl)-5-(pyrimidin-2-yl)-4H-1,2,4-triazol-3-yl)-1-(5-fluoropyrimidin-2-yl)propane-2-sulfonamide] | 110
20 | COc1cnc([C@H](C)[C@H](C)S(=O)(=O)Nc2nnc(-c3ccn(C)n3)n2-c2c(OC)ncnc2OC)nc1 [Example 297.0] | 0.14
21 | CCc1csc(-c2nnc(NS(=O)(=O)CCc3ncc(F)cn3)n2-c2c(OC)cccc2OC)n1 [Example 97.0, N-(4-(2,6-dimethoxyphenyl)-5-(4-ethylthiazol-2-yl)-4H-1,2,4-triazol-3-yl)-2-(5-fluoropyrimidin-2-yl)ethanesulfonamide] | 7
22 | COc1cncc(-c2nnc(NS(=O)(=O)[C@@H](C)Cc3ncc(F)cn3)n2-c2c(OC)cccc2OC)n1 (single isomer, unassigned) [Example 188.0, (2S)-N-(4-(2,6-dimethoxyphenyl)-5-(6-methoxy-2-pyrazinyl)-4H-1,2,4-triazol-3-yl)-1-(5-fluoro-2-pyrimidinyl)-2-propanesulfonamide or (2R)-N-(4-(2,6-dimethoxyphenyl)-5-(6-methoxy-2-pyrazinyl)-4H-1,2,4-triazol-3-yl)-1-(5-fluoro-2-pyrimidinyl)-2-propanesulfonamide] | 15
23 | COc1cccc(OC)c1-n1c(NS(=O)(=O)[C@@H](C)[C@H](OC)c2ncc(C)cn2)nnc1-c1cnn2c1CCC2 [Example 444.0, (1R,2S)-N-(5-(5,6-dihydro-4H-pyrrolo[1,2-b]pyrazol-3-yl)-4-(2,6-dimethoxyphenyl)-4H-1,2,4-triazol-3-yl)-1-methoxy-1-(5-methylpyrimidin-2-yl)propane-2-sulfonamide] | 1.2
24 | COc1ccccc1-n1c(NS(=O)(=O)CCC(F)(F)F)nnc1-c1cccs1 [Example 386.0, 3,3,3-Trifluoro-N-(4-(2-methoxyphenyl)-5-(2-thiophenyl)-4H-1,2,4-triazol-3-yl)-1-propanesulfonamide] | > 12500
25 | COc1ccccc1-n1c(NS(=O)(=O)CCc2ccccc2)nnc1-c1cccs1 [Example 238.0, N-(4-(2-methoxyphenyl)-5-(2-thiophenyl)-4H-1,2,4-triazol-3-yl)-2-phenylethanesulfonamide] | 226
26 | COc1cccc(OC)c1-n1c(NS(=O)(=O)[C@@H](C)[C@H](C)c2ncc(C#N)cn2)nnc1-c1ccn(C(F)F)n1 [Example 224.0, (2S,3R)-3-(5-cyano-2-pyrimidinyl)-N-(5-(1-(difluoromethyl)-1H-pyrazol-3-yl)-4-(2,6-dimethoxyphenyl)-4H-1,2,4-triazol-3-yl)-2-butanesulfonamide] | 0.41
